Measured values: patent US9783574B2, “Cardiovascular therapeutics” (Otago Innovation Limited, priority 2011, dated 2017)
No end group written: not given here.

Tests used:
isolated rat heart = experiment: Modified BNPsp peptides, preconditioning in isolated rat heart (Example 6: 40 min global ischemia, 90 min reperfusion); details: preconditioned 30 minutes with 0.3 nmol/L; n=3
Description: This set of experiments assessed modified BNPsp(17-26) peptides. This experiment repeated the preconditioning work outlined in the isolated rat heart model Examples, but with C-terminal ablated and an N-terminal extended version of BNPsp(17-26). Hearts were preconditioned with 30 minute doses of 0.3 nmol/L BNPsp(16-26) and BNPsp(17-24) prior to 40 minutes of global ischemia and 90 minutes reperfusion. Cardiac contractile and perfusion pressure indices were recorded.

in vivo = details: sheep, iv
Description: In this set of experiments, four normal healthy sheep were infused with human BNPsp(17-26) at 100-1000 ug/kg·min−1 to document any effects upon normal blood pressure, heart rate or renal function. This experiment was carried out to determine achieved circulating levels of BNPsp(17-26) in response to the dose given and to document any significant effects upon haemodynamic, renal or hormonal indices.

normal, healthy sheep = details: in vivo
From the text: Such a response is indicative of a well tolerated agent. […] This is a favourable profile in normal health.

Row | Sequence | haemodynamic protective profile (developed pressure) (isolated rat heart) | half-life (in vivo) | haemodynamics, renal function or circulating biomarkers (normal, healthy sheep)
1 | LHLAFLGG (listed as Homo sapiens) [BNPsp(17-24), modified peptide with two C-terminal amino acids removed] | protective effect | – | –
2 | LHLAFLGGRS [BNPsp(17-26), LHLAFLGGRS] | – | < 1 min | no detectable changes
